Bridge positions count the residues as written; N and C are the ends. Ends that are not written are not given here. Peptide text beside a SMILES is read from it.
Columns and labels:
[1] = target: T1, F1-gp120 binding to CD4+ human cells (Human immunodeficiency virus type 1 group M subtype B, UniProt P04578); assay: Inhibition of fluoresceinated gp120 binding to CD4+ cells (flow microfluorimetry); settings: compound 1 mg
T1 construct: Recombinant gp-120 was obtained from Raymond Sweet at Smith Kline Beecham and directly fluoresceinated; purchased Raymond Sweet at Smith Kline Beecham (obtained, not a catalogue product); host or cells: CD4+ human cells (Jurkat CD4+)
Experimental: This assay uses fluoresceinated gp120 and monitors its ability to bind to CD4+.
Recombinant gp-120 was obtained from Raymond Sweet at Smith Kline Beecham and directly fluoresceinated. Flow microfluorimetry was performed using a FACScan. Chen, et al., (1992) Proc. Nat'l. Acad. Sci. U.S.A., 89:5872-5876; Weiner, et al., (1990) Cancer Detection and Prevention, 14:317-320; and Weiner, et al., (1990) Vaccines, 339-345, discloses the assay was done using the CD4 related synthetic compounds or, separately, monoclonal anti-CD4 antibody as described.

CD4+ T cells = assay: Blocking of T cell activation by tetanus toxoid (3H-TdR incorporation); format: cell-based; design: dose or concentration left out as unconfirmed; settings: 10^4 T cells + tetanus toxoid, 48 hours
Experimental: 10^4 blood monocytes were pulsed with […] of tetanus toxoid for
hours. 10^4 CD4+ T cells were added with the compounds […] in
a final volume of […] of media. The cells were pulsed with […]
HTdR and assayed at 48 hours.

[2] = system: ABA delayed type hypersensitivity; assay: In vivo inflammation: delayed type hypersensitivity to azobenzenearsonate (ABA); design: species or system mouse; settings: 100 μg total dose
Experimental: The effects of macrocyclics on in vivo inflammation were examined as follows. The effects of cyclic compounds disclosed in Table I on in vivo inflammatory response to Azobenzenearsonate was performed using treated groups of ABA primed normal Balb/c or Va3.1 transgenic mice with either 1) intravenously administered anti-CD4 monoclonal antibodies, 2) intravenously administered anti-class II antibodies, 3) systemically administered soluble forms of the most efficacious constrained macrocyclics 4) intravenously administered ABA coupled mononuclear cells, and 5) control antibodies and control macrocyclics. […]
The delayed type hypersensitivity assay is performed as follows. Five days after priming a mouse with hapten coupled cells, the hind left footpad is measured using an engineer's caliper (Fowler). […] Twenty four hours later, the degree of swelling is measured in the footpad. […]
For priming, mice (normal or transgenic with a T-cell receptor that recognizes ABA) are injected subcutaneously in each flank using a 23 g needle with 0.1 ml of ABA- or TNP-coupled spleen cells (3×10^7).Five days later, ear thickness and footpad thickness is measured with a caliper. […] Twenty four hours after challenge, the ears and footpads are measured and the animals sacrificed by cervical dislocation. […]

sCD4 binding to DRb2 = target: T2, sCD4 binding to DRb2 (Homo sapiens, UniProt P01911); assay: CD4 receptor-DRb2 blocking: 125I-sCD4 binding to immobilized DRb2 peptide
T2 construct: made in house
Experimental: The peptidic fragment is first coupled to activated sepharose 4B (0.5 mg of peptide/ml of beads).
75 μg of the recombinant soluble CD4 was labelled with 2 mCi of Bolotn Hunter reagent (Dupont/New England Nuclear) in 100 mM sodium borate, pH 8.5, in a volume of 150 μl. The labelled CD4 was separated from the unconjugated reagent on a G-50 Sephadex column containing PBS/0.1% gelatin and stored at -70° C.
HPLC purified forms of the DRb2 peptide were prepared. The peptide ([…] in 0.1M ammonium bicarbonate, pH 7.8) was immobilized on Falcon microtiter plates by overnight exposure. After washing several times and blocking with 2% BSA in HBSS pH 7.6 for 2 hours we add […] of ^125 I labelled sCD4. After 1 hour at room temperature the wells are washed 5× and the radioactivity counted.

[3] = system: responder CD4+ T cells + allogeneic cells; assay: Blocking of the mixed lymphocyte response; format: cell-based, human; settings: .1 mg printed in table line
Experimental: Responder purified CD4+ T cells were used in a mixed lymphocyte response against completely allogeneic human cells. The compounds were added at 10 μg/ml final concentration. The number of responder cells was 10^5 and the number of stimulators 4×10^5 cells per well.

HIV-1MN = assay: Syncytium assay, HIV; format: cell-based; settings: for syncytia: none 100
Experimental: Chen, et al., (1992) Proc. Nat'l. Acad. Sci. U.S.A., 89:5872-5876; Weiner, et al. (1990) Cancer Detection and Prevention, 14:317-320, discloses Sup T1 cells are used as target cells because of their rapid and high degree of fusion when co-cultured with HIV-1 producing cell lines. Uninfected target cells were assayed by co-culture with HIV-infected cells (H9/IIIB.) Washed, HIV-infected cells are plated in 96-well plates (10^4 cells/well in RPMI 1640+10% FCS) and incubated for 30 min at 37° C. Target cells are then added at 5×10^5 /well and the number of syncytia is qualitatively determined after a 48-hour incubation period. CD4 forms to be tested are added at time 0 or 24 hours after the assay has been initiated. Graded doses are used, controls including random linear peptides are also added independently. sCD4 and antibodies to CD4 are used as positive controls.
Another neutralization assay which is used in the field is as follows. One hundred TCID50 of HIV-1/IIIB or HIV-1/MN cell-free virus is preincubated with serial dilutions of compounds for 1 hour at 37° C. Following incubation, the pretreated virus was then plated on 4×10^4 MT-2 target cells, for 1 hour at 37° C. The MT-2 cells were then washed 3 times and incubated at 37° C. with 5% CO2. Fusion was evaluated 3 days later quantitatively by counting the number of syncytia per well in triplicate under a phase contrast microscope. The neutralization value (the ability of a compound to inhibit HIV infection 0 Vn/Vo) is calculated by dividing the mean number of syncytia per well following treatment with specific antiserum by the mean number of syncytia per well without antiserum (see: Montefiori, et al., (1988) J. Clin. Microbiol., 26:231-235).

CC(C)C[C@@H]1NC(=O)[C@H](Cc2ccccc2)NC(=O)[C@H](CO)NC(=O)CNC(=O)[C@H](CCC(N)=O)NC(=O)[C@H](CC(N)=O)NC(=O)[C@@H](NC(=O)[C@@H](N)Cc2ccc(O)cc2)CSSC[C@@H](C(=O)N[C@@H](Cc2ccc(O)cc2)C(=O)O)NC1=O [SEQ ID NO:1, Y, C, N, Q, G, S, F, L, C, Y] (H-YCNQGSFLCY-OH; disulfide 2-9)
% Inhibition [1]: 33%
% response (CD4+ T cells): 77%

C[C@@H](O)[C@@H]1NC(=O)[C@@H](NC(=O)[C@@H](N)Cc2ccccc2)CSSC[C@@H](C(=O)N[C@@H](Cc2ccc(O)cc2)C(=O)O)NC(=O)[C@H](CCCCN)NC(=O)[C@H](CO)NC(=O)[C@@H]2CCCN2C(=O)CNC(=O)[C@H](CCCCN)NC1=O [SEQ ID NO:3, F, C, T, K, G, P, S, K, C, Y] (H-FCTKGPSKCY-OH; disulfide 2-9)
% Inhibition [1]: 83%

CC(C)[C@@H]1NC(=O)[C@H](CCC(=O)O)NC(=O)[C@@H](NC(=O)[C@@H](N)Cc2ccccc2)CSSC[C@@H](C(=O)N[C@@H](Cc2ccc(O)cc2)C(=O)O)NC(=O)[C@H](CCC(=O)O)NC(=O)[C@H](CCCCN)NC(=O)[C@H](CCC(N)=O)NC(=O)[C@H](CC(=O)O)NC(=O)[C@H](CCC(=O)O)NC1=O [SEQ ID NO:8, F, C, E, V, E, D, Q, K, E, C, Y] (H-FCEVEDQKECY-OH; disulfide 2-10)
% Inhibition [1]: 83%

CC(C)C[C@@H]1NC(=O)[C@@H](NC(=O)[C@@H](N)Cc2ccccc2)CSSC[C@@H](C(=O)N[C@@H](Cc2ccc(O)cc2)C(=O)O)NC(=O)[C@H](CC(C)C)NC(=O)[C@H](C(C)C)NC(=O)[C@H](CCC(N)=O)NC(=O)CNC(=O)[C@H](CO)NC(=O)[C@H](CC(=O)O)NC(=O)[C@H](CO)NC1=O [SEQ ID NO:9, F, C, L, S, D, S, G, Q, V, L, C, Y] (H-FCLSDSGQVLCY-OH; disulfide 2-11)
% Inhibition [1]: 8%
% response (CD4+ T cells): 100%

CDR2R: macrocyclic compound modeled to bind to the reovirus receptor on activated T cells; probably SEQ ID NO:10 (FKTNKCIYSGSTCQF; disulfide 6-13 (inferred))
reducing in vivo delayed type hypersensitivity to ABA [2]: efficacious

F, C, Y, I, C, E, V, E, D, Q, C, Y (FCYICEVEDQCY; also: cyclized, ring type and places not given here) [SEQ ID NO:7, CD4, 84-91 cyclized, CDR3-like, Human]
% inhibition of sCD4 binding (sCD4 binding to DRb2; .1 mg compound, first experiment): 48%
Bound CD4 (cpm) (sCD4 binding to DRb2; .1 mg compound, first experiment (none 3600, no DRb2 1100)): 2400 cpm
% inhibition of sCD4 binding (sCD4 binding to DRb2; .5 mg compound, first experiment): 88%
Bound CD4 (cpm) (sCD4 binding to DRb2; .5 mg compound, first experiment (none 3600, no DRb2 1100)): 1400 cpm
% inhibition of sCD4 binding (sCD4 binding to DRb2; Experiment 2, amount not given): 100%
Bound CD4 (cpm) (sCD4 binding to DRb2; Experiment 2, amount not printed (none 2000, no DRb2 1100)): 800 cpm
% Inhibition [1]: 75%
Mean Channel Fluorescence ([1]; none 21, background 9): 12
% response (CD4+ T cells): 55%
3H-TdR incorporation (cpm) (CD4+ T cells; none 45,090 cpm): 25,000 cpm
% inhibition of MLR [3]: 48%
(cpm) ([3]; control 85,000): 55,000 cpm
% protection from syncytia (HIV-1MN; 6.125 μg): 48%
syncytia (HIV-1MN; 6.125 μg): 35
% protection from syncytia (HIV-1MN; 12.5 μg): 88%
syncytia (HIV-1MN; 12.5 μg): 15
